Laboratory results taken from PMC6831285, “TMTP1-modified Indocyanine Green-loaded Polymeric Micelles for Targeted Imaging of Cervical Cancer and Metastasis Sentinel Lymph Node in vivo” (Theranostics, 2019).

Legend:
[1] = Plasma pharmacokinetic study; assay type: in vivo, BALB/c-nude mice; details: 0.5 mg/kg ICG
Procedure: Normal BALB/c-nude mice were administered intravenously with ITM or free ICG solution at an dose of 10 μg, respectively. At designed time points of 5 min, 10 min, 30 min, 1 h, 2 h, 3 h, 4 h, 8 h and 12 h post- injection, […] blood samples were collected into EDTA tubes and centrifuged at 6000 rpm for 10 min to obtain plasma. A fluorescence spectrophotometer with excitation and emission wavelengths of 745 nm and 840 nm was used to measure the ICG of the supernatant. The ICG content in the plasma was then assayed.

popliteal (PO) LN = assay: NIR fluorescence LN imaging of normal mice; assay type: in vivo, BALB/c nude mice; details: intradermal injection into right paw, ICG 1.0 mg/kg
Procedure: For the SLN metastasis model, 1 × 10^7 HeLa-luc cells in 15 μL PBS were injected into the right hock of 5-week-old BALB/c-nude mice. The mice were monitored by BLI weekly to detect tumor metastases. After 1 month, tumor was about 5 mm with PO LN metastasis. HeLa-bearing mice were divided two groups randomly (n=10) and injected ITM and IM micelles via foot at equivalent ICG dose of 2 μg. At designed time points (5 min, 30 min, 1 h, 12 h and 24 h), the NIR fluorescence images in vivo were obtained. At 30 min and 1 h post injection, 2 mice from each group were randomly sacrificed and the excised main LNs were imaged. After 24 h post injection, LNs and main organs (heart, liver, spleen, lung, and kidney) were handled as described. In the same way, normal mice were divided into two groups randomly (n=5) and injected intradermally ITM or IM via foot. The NIR fluorescence images were acquired as mentioned above.

[2] = Photostability under visible light; assay type: physicochemical; details: after 1 day of exposure to visible light, 10 μg/mL
Procedure: The effect of the light exposure on the degradation of ITM or IM was determined with visible light at room temperature. The ICG and ICG-loaded micelles were diluted with distilled water to a final concentration of 10 μg/mL and were loaded into a 12-well plate. The fluorescence intensity was measured for up to 6 days. After incubation, the remaining fluorescence of each sample was measured using a spectrofluorometer with excitation and emission wavelengths of 745 nm and 840 nm, respectively. For the quantitative analysis, we normalized the fluorescence signal intensity.

CC1(C)C(/C=C/C=C/C=C/C=C2\N(CCCCS(=O)(=O)O)c3ccc4ccccc4c3C2(C)C)=[N+](CCCCS(=O)(=O)[O-])c2ccc3ccccc3c21 [Free ICG, indocyanine green]
Cmax ([1]; BALB/c-nude, mouse, iv): 134 ng/mL | MRT ([1]; BALB/c-nude, mouse, iv): 268 min | Tmax ([1]; BALB/c-nude, mouse, iv): 5 min | clearance ([1]; BALB/c-nude, mouse, iv): 18 mL/min/kg | half-life ([1]; BALB/c-nude, mouse, iv): 4 min | AUC(0-t) ([1]; BALB/c-nude, mouse, iv, read-out: AUC (0-12 h) in plasma (converted)): 224 ng·h/mL | V ([1]; i.v.): 21.358 L/kg | time within which the NIR fluorescence signal in SLN decreased quickly (popliteal (PO) LN): ≤ 1 h | fluorescence intensity remaining, of initial value [2]: less than 50%
